Legend:
[1] = target: 5-hydroxytryptamine receptor 2B (Homo sapiens, UniProt P41595); details: Compound concentration 10.0 uM
[2] = target: Tyrosine-protein kinase Mer (Homo sapiens) (UniProt Q12866); assay: Mer Kinase panel; details: Compound concentration 1.0 uM
[3] = target: Receptor-interacting serine/threonine-protein kinase 2 (Homo sapiens) (UniProt O43353); assay: RIPK2 Kinase panel; details: Compound concentration 1.0 uM
[4] = target: Fibroblast growth factor receptor 3 (Homo sapiens) (UniProt P22607); assay: FGFR3 Kinase panel; details: Compound concentration 1.0 uM
[5] = target: Tyrosine-protein kinase JAK2 (Homo sapiens, UniProt O60674); assay: NanoBRET assay (JAK2, SGC Frankfurt)
[6] = target: Protein kinase C alpha type (Homo sapiens) (UniProt P17252); assay: PKC_alpha Kinase panel; details: Compound concentration 1.0 uM
[7] = target: Testis-specific serine/threonine-protein kinase 1 (Homo sapiens) (UniProt Q9BXA7); assay: TSSK1 Kinase panel; details: Compound concentration 1.0 uM
[8] = target: Megakaryocyte-associated tyrosine-protein kinase (Homo sapiens) (UniProt P42679); assay: Hyl Kinase panel; details: Compound concentration 1.0 uM
[9] = target: Mitogen-activated protein kinase 9 (Homo sapiens) (UniProt P45984); assay: JNK2 Kinase panel; details: Compound concentration 1.0 uM
[10] = target: Mast/stem cell growth factor receptor Kit (Homo sapiens) (UniProt P10721); assay: Kit Kinase panel; details: Compound concentration 1.0 uM
[11] = target: Sigma intracellular receptor 2 (Homo sapiens) (UniProt Q5BJF2); details: Compound concentration 10.0 uM
[12] = target: 5-hydroxytryptamine receptor 6 (Homo sapiens) (UniProt P50406); details: Compound concentration 10.0 uM
[13] = target: Ribosomal protein S6 kinase beta-1 (Homo sapiens) (UniProt P23443); assay: p70S6K Kinase panel; details: Compound concentration 1.0 uM
[14] = target: Proto-oncogene tyrosine-protein kinase Src (Homo sapiens) (UniProt P12931); assay: Src Kinase panel; details: Compound concentration 1.0 uM
[15] = target: Serine/threonine-protein kinase TBK1 (Homo sapiens) (UniProt Q9UHD2); assay: TBK1 Kinase panel; details: Compound concentration 1.0 uM
[16] = target: Interleukin-1 receptor-associated kinase 4 (Homo sapiens) (UniProt Q9NWZ3); assay: IRAK4 Kinase panel; details: Compound concentration 1.0 uM
[17] = target: Inhibitor of nuclear factor kappa-B kinase subunit epsilon (Homo sapiens) (UniProt Q14164); assay: IKK_epsilon Kinase panel; details: Compound concentration 1.0 uM
[18] = target: Mitogen-activated protein kinase kinase kinase 20 (Homo sapiens) (UniProt Q9NYL2); assay: ZAK Kinase panel; details: Compound concentration 1.0 uM
[19] = target: Phosphatidylinositol 4,5-bisphosphate 3-kinase catalytic subunit gamma isoform (Homo sapiens) (UniProt P48736); assay: PI3KG Kinase panel; details: Compound concentration 1.0 uM
[20] = target: Dual specificity protein kinase TTK (Homo sapiens) (UniProt P33981); assay: TTK Kinase panel; details: Compound concentration 1.0 uM
[21] = target: Myosin light chain kinase, smooth muscle (Homo sapiens) (UniProt Q15746); assay: MYLK(smMLCK) Kinase panel; details: Compound concentration 1.0 uM
[22] = target: Rho-associated protein kinase 1 (Homo sapiens) (UniProt Q13464); assay: ROCK1 Kinase panel; details: Compound concentration 1.0 uM
[23] = target: Mitogen-activated protein kinase kinase kinase 10 (Homo sapiens) (UniProt Q02779); assay: MLK2 Kinase panel; details: Compound concentration 1.0 uM
[24] = target: Ephrin type-A receptor 7 (Homo sapiens) (UniProt Q15375); assay: EphA7 Kinase panel; details: Compound concentration 1.0 uM
[25] = target: Ephrin type-A receptor 8 (Homo sapiens) (UniProt P29322); assay: EphA8 Kinase panel; details: Compound concentration 1.0 uM
[26] = target: Tyrosine-protein kinase ABL1 (Homo sapiens) (UniProt P00519); assay: Abl Kinase panel; details: Compound concentration 1.0 uM
[27] = target: MAP kinase-interacting serine/threonine-protein kinase 1 (Homo sapiens) (UniProt Q9BUB5); assay: MKNK1 Kinase panel; details: Compound concentration 1.0 uM
[28] = target: Beta-adrenergic receptor kinase 1 (Homo sapiens) (UniProt P25098); assay: GRK2 Kinase panel; details: Compound concentration 1.0 uM
[29] = target: Vascular endothelial growth factor receptor 1 (Homo sapiens) (UniProt P17948); assay: Flt1 Kinase panel; details: Compound concentration 1.0 uM
[30] = target: Dual specificity protein kinase CLK3 (Homo sapiens) (UniProt P49761); assay: CLK3 Kinase panel; details: Compound concentration 1.0 uM
[31] = target: Casein kinase I isoform epsilon (Homo sapiens) (UniProt P49674); assay: CK1_epsilon1 Kinase panel; details: Compound concentration 1.0 uM
[32] = target: Tyrosine-protein kinase receptor TYRO3 (Homo sapiens) (UniProt Q06418); assay: Rse Kinase panel; details: Compound concentration 1.0 uM
[33] = target: Alpha-1B adrenergic receptor (Homo sapiens) (UniProt P35368); details: Compound concentration 10.0 uM
[34] = target: GABA-A receptor; anion channel (Rattus norvegicus) (UniProt O09028+P15431+P18506+P18508+P19969+P20236+P23574+P23576+P28471+P28473+P30191+P62813+P63079+P63138+Q91ZM7+Q9ES14); details: Compound concentration 10.0 uM
[35] = target: 5-hydroxytryptamine receptor 2C (Homo sapiens) (UniProt P28335); details: Compound concentration 10.0 uM
[36] = target: Insulin receptor-related protein (Homo sapiens) (UniProt P14616); assay: IRR Kinase panel; details: Compound concentration 1.0 uM
[37] = target: Platelet-derived growth factor receptor alpha (Homo sapiens) (UniProt P16234); assay: PDGFR_alpha Kinase panel; details: Compound concentration 1.0 uM
[38] = target: Tyrosine-protein kinase Lck (Homo sapiens) (UniProt P06239); assay: Lck Kinase panel; details: Compound concentration 1.0 uM
[39] = target: Serine/threonine-protein kinase PLK2 (Homo sapiens) (UniProt Q9NYY3); assay: PLK2 Kinase panel; details: Compound concentration 1.0 uM
Homo sapiens = species: Homo sapiens; assay: (§1) TAO1 Kinase panel; details: Compound concentration 1.0 uM
[40] = target: Serine/threonine-protein kinase TAO1 (Homo sapiens) (UniProt Q7L7X3); assay: as §1; details: Compound concentration 1.0 uM
[41] = target: Serine/threonine-protein kinase 3 (Homo sapiens) (UniProt Q13188); assay: MST2 Kinase panel; details: Compound concentration 1.0 uM
[42] = target: High affinity nerve growth factor receptor (Homo sapiens, UniProt P04629); assay: TrkA Kinase panel
[43] = target: Dual specificity tyrosine-phosphorylation-regulated kinase 1A (Homo sapiens) (UniProt Q13627); assay: DYRK1A Kinase panel; details: Compound concentration 1.0 uM
[44] = target: CDK8/Cyclin C (Homo sapiens) (UniProt P49336+P24863); assay: CDK8/cyclinC Kinase panel; format: protein-complex assay; details: Compound concentration 1.0 uM
[45] = target: Glycogen synthase kinase-3 beta (Homo sapiens) (UniProt P49841); assay: GSK3_beta Kinase panel; details: Compound concentration 1.0 uM
[46] = target: Cyclin-dependent kinase 1/cyclin B (Homo sapiens) (UniProt P06493+P14635+Q8WWL7+O95067); assay: CDK1/cyclinB Kinase panel; format: protein-complex assay; details: Compound concentration 1.0 uM
[47] = target: Tyrosine-protein kinase Lyn (Homo sapiens) (UniProt P07948); assay: Lyn Kinase panel; details: Compound concentration 1.0 uM
[48] = target: Mitogen-activated protein kinase kinase kinase 5 (Homo sapiens) (UniProt Q99683); assay: ASK1 Kinase panel; details: Compound concentration 1.0 uM
[49] = target: Phosphatidylinositol 4,5-bisphosphate 3-kinase catalytic subunit alpha isoform (Homo sapiens) (UniProt P42336); assay: PI3KA Kinase panel; details: Compound concentration 1.0 uM
[50] = target: D(2) dopamine receptor (Homo sapiens) (UniProt P14416); details: Compound concentration 10.0 uM
[51] = target: Alpha-2C adrenergic receptor (Homo sapiens) (UniProt P18825); details: Compound concentration 10.0 uM

Chain of Casein kinase I isoform epsilon (Homo sapiens) (P49674 whole entry, looked up, canonical isoform): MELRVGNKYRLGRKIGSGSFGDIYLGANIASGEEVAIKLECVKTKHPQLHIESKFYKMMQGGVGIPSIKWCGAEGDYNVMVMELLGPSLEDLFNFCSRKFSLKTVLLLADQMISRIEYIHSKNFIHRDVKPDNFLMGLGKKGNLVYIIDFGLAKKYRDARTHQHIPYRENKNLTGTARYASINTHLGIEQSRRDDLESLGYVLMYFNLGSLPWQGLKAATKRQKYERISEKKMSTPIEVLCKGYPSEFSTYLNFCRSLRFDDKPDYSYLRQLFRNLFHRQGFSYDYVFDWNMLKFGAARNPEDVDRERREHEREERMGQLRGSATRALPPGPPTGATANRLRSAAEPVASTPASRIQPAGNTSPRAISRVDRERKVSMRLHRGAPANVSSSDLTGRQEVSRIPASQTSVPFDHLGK
Chain of Tyrosine-protein kinase Mer (Homo sapiens) (Q12866 whole entry): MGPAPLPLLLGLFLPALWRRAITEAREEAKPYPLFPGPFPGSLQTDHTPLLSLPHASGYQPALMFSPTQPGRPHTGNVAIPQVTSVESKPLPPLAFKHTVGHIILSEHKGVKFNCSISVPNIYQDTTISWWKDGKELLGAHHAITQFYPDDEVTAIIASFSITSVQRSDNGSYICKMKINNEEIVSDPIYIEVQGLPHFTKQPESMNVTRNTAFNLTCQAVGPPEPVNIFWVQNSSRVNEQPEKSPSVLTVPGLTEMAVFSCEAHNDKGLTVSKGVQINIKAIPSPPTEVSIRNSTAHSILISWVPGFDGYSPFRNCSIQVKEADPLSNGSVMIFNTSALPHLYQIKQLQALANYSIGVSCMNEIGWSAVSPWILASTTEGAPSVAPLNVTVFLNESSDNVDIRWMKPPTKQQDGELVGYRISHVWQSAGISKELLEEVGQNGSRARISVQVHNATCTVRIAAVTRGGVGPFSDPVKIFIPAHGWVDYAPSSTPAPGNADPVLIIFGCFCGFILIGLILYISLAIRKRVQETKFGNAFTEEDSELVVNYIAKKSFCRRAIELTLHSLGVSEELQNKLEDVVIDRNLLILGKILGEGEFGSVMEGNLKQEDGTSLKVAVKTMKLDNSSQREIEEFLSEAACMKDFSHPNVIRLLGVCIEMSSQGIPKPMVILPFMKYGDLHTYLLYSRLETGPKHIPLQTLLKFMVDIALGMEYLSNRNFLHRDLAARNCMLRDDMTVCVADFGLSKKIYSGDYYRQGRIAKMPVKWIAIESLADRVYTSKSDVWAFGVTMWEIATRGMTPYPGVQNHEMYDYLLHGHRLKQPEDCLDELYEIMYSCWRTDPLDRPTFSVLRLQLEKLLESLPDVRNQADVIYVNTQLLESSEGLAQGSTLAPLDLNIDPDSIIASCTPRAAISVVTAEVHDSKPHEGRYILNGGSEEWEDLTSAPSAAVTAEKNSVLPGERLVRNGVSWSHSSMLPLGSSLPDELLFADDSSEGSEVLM
Chain of Ephrin type-A receptor 8 (Homo sapiens) (P29322 whole entry): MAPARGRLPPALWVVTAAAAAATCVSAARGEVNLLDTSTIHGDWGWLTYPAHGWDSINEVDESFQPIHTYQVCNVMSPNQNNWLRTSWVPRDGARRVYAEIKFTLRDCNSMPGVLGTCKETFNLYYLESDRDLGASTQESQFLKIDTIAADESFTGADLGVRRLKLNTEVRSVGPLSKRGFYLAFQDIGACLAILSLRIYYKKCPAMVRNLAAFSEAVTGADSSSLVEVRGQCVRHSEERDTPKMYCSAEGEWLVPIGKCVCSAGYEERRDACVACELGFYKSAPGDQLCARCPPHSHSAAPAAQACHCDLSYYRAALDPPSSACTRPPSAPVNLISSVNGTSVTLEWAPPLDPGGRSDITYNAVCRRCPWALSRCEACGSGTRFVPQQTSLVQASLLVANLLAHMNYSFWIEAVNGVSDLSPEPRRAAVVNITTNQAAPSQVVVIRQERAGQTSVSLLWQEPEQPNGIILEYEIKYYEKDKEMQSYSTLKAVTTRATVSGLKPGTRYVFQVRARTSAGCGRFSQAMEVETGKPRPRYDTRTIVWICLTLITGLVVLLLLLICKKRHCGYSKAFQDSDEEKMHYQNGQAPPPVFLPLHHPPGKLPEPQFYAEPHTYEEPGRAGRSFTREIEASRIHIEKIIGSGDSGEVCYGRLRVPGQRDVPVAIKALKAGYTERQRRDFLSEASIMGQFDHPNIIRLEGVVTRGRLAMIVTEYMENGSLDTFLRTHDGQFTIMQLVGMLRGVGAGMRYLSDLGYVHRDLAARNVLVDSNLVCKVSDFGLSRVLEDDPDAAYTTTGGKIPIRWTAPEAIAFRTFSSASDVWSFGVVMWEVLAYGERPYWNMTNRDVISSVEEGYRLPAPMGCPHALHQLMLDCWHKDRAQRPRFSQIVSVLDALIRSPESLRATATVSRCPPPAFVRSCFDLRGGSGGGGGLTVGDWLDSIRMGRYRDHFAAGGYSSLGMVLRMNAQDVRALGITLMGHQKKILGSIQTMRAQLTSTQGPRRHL
Chain of Testis-specific serine/threonine-protein kinase 1 (Homo sapiens) (Q9BXA7 whole entry): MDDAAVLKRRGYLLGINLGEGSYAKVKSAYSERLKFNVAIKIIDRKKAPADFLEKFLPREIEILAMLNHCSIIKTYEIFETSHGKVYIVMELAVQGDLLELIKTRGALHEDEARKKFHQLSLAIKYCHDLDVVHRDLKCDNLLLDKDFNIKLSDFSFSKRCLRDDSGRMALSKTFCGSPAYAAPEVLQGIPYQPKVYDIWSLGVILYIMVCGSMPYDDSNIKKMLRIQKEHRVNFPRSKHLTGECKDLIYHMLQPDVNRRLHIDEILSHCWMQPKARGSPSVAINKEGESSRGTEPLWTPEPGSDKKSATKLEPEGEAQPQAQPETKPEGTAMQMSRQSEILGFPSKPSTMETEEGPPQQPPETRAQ
Chain of Rho-associated protein kinase 1 (Homo sapiens) (Q13464 2-1354 limits assumed): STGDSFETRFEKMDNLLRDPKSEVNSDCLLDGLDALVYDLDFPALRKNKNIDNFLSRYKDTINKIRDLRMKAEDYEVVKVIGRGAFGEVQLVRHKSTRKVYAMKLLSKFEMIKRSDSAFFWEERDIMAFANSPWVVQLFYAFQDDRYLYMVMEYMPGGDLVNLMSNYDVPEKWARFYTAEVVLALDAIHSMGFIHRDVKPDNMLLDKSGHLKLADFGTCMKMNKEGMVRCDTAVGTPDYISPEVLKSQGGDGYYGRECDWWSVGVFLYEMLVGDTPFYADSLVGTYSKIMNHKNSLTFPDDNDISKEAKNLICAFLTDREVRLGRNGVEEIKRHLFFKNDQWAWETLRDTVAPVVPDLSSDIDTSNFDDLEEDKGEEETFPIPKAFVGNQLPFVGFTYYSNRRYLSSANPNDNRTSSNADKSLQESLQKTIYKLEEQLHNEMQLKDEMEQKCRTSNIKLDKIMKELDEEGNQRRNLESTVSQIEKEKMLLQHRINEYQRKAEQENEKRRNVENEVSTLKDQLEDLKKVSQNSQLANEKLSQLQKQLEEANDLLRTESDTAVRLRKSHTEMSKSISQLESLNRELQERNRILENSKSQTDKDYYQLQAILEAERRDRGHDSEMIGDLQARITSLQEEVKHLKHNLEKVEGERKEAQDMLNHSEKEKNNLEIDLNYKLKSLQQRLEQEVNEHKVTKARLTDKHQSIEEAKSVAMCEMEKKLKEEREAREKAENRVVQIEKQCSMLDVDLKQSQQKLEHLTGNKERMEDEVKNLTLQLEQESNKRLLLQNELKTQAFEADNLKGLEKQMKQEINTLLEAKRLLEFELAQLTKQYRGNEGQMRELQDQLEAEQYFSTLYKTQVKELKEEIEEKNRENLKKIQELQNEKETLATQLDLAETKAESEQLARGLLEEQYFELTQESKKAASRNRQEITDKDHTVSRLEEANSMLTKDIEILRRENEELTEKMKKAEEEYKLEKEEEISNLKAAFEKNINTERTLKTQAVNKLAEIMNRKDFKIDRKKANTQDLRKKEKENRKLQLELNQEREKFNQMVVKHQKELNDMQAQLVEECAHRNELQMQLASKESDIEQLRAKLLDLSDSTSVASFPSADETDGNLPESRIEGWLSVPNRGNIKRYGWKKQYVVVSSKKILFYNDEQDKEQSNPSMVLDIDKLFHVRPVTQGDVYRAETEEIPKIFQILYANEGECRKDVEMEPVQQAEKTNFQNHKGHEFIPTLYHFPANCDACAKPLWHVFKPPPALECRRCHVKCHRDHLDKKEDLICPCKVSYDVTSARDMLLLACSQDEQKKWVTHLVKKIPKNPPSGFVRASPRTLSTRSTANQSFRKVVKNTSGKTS
Chain of Sigma intracellular receptor 2 (Homo sapiens) (Q5BJF2 whole entry): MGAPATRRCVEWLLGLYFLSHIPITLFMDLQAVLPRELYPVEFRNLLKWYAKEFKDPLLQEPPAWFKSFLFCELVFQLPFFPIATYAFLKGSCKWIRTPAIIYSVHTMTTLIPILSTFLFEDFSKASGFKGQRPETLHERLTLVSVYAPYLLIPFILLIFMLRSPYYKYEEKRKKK

CC(C)(O)[C@H](F)CN1Cc2cc(NC(=O)c3cnn4cccnc34)c(N3CCOCC3)cc2C1=O
active: inhibition [1] 84.1%
inactive: inhibition [2] 28% | inhibition [3] 22.5% | inhibition [4] 1.5% | inhibition [6] 11% | inhibition [7] 5% | inhibition [8] -4% | inhibition [9] 2.5% | inhibition [10] 3% | inhibition [11] -0.93% | inhibition [12] 7.46% | inhibition [13] 1% | inhibition [14] 23.8% | inhibition [15] 5.5% | inhibition [16] 101% | inhibition [17] -0.5% | inhibition [18] 5.5% | inhibition [19] 46.5% | inhibition [20] 13% | inhibition [21] 12% | inhibition [22] 5% | inhibition [23] 7.5% | inhibition [24] 20% | inhibition [25] 13% | inhibition [26] 9.8% | inhibition [27] -6% | inhibition [28] -3% | inhibition [29] -1% | inhibition [30] 10% | inhibition [31] 5.5% | inhibition [32] 18% | inhibition [33] -5.24% | inhibition [34] 18.5% | inhibition [35] 1.26% | inhibition [36] 18% | inhibition [37] 40.5% | inhibition [38] 41.3% | inhibition [39] -3.5% | inhibition (Homo sapiens) 2% | inhibition [40] 2% | inhibition [41] 7% | inhibition ([42]; Compound concentration 1.0 uM) 71% | inhibition [43] 2% | inhibition [44] 13.5% | inhibition [45] 7.8% | inhibition [46] 2.5% | inhibition [47] 55.3% | inhibition [48] 3.5% | inhibition [49] 21.5% | inhibition [50] 3.24% | inhibition [51] -8.65%
> 50 µM (not active): EC50 [5]
313 nM: IC50 [42]

From ChEMBL document CHEMBL4879554, “Data for DCP probe GNE-2256” (2021)
